# Assay results: patent US20080234132A1, “Microcin B17 Analogs And Methods For Their Preparation And Use” (priority 2004, published 2008)
# *1 amine or outer side, *2 acyl side, *3 side chain or, on linkers, in order; H or OH if unused. Where a SMILES comes first, the peptide text is derived from it. [ ]: non-standard residue; d: D form. X2 = O=C(c1c[nH]c(CN[*:1])c1)[*:2]
# How the values were obtained:
# [1] = target: T1, E. coli DNA gyrase A2B2, MG1655 wild type (Escherichia coli, UniProt P0AES4+P0AES6); type: biochemical
# Source text: ATP hydrolysis by DNA gyrase was linked to the oxidation of NADH using a pyruvate Kinase (PK)/lactate dehydrogenase (LDH) coupled enzyme assay and measured at 340 nm on a Spectramax Plus Microplate. […] DMSO was kept constant at 2%.
# Experimental data were fitted and treated with the following equation:
# where L represents the inhibitor concentration, v represents the rate of the ATPase reaction, and v0 represents the rate in absence of inhibitor. The IC50 is deduced from the equation 2:
# [2] = target: E. coli DNA gyrase A2B2, W751R mutant (Trp751→Arg in DNA gyrase B subunit) (Escherichia coli, UniProt P0AES4+P0AES6, W751R); conditions: FIG. 18
# Experimental: ATP hydrolysis by DNA gyrase was linked to the oxidation of NADH using a pyruvate Kinase (PK)/lactate dehydrogenase (LDH) coupled enzyme assay and measured at 340 nm on a Spectramax Plus Microplate. The ATPase assay was similar to that described previously by Pierrat & Maxwell, 2005. Each 100 μL reaction contained 50 mM Tris.HCl (pH 7.5), 24 mM KCl, 5 mM MgCl2, 6.5% (w/w) glycerol, 4 mM dithiotreitol, 0.4 mM NADH, 0.8 mM phosphorenol-pyruvate, 1% (w/w) PK/LDH mixture (Sigma), 51 nM-153 nM gyrase enzyme and the drug tested at varying concentrations. DMSO was kept constant at 2%. The reactions were measured in the presence or absence of linear DNA pBR322 at fixed concentration of 8.4 nM. Reactions were initiated by the addition of 10 mM Mg.ATP and measured at 25° C. over 1.5 hours.
# DNA-dependent ATPase reactions were tested with the wild type enzyme A2B2 and the W751R mutant enzyme. In these DNA-dependent ATPase assays, the concentration of wild type A2B2 is 51 nM, the concentration of W751R mutant enzyme is 106 nM.
# [3] = tested on: Arabidopsis thaliana ecotype Columbia seeds; experiment: Seed germination, Arabidopsis thaliana; type: in vivo; conditions: three week period
# Source text: Germination begins when the dormant dry seed begins to take up water (imbibition from the surface sterilization process). Primary roots emerge while the seed is in the culture media. Subsequently the hypocotyls emerge and elongate to pull the cotyledons above the culture media surface. After straightening up, the cotyledons arrange into an horizontal position, as shown in the Figure, and, then spread apart in order to expose the first true leaves and the apical meristem (growing tip).
# (§1) The microcin derivatives were tested for efficacy in planta against Arabidopsis thaliana ecotype Columbia according to known methods (see Wall et al., 2004). Seeds were germinated on sterile media containing the appropriate peptide and the effects were observed over a three week period. […] In […] seeds, such as A. thaliana, during imbibition the quiescent seed rapidly resumes metabolic and respiratory activity. One of the first steps, as part of this process, is the initiation of mitochondrial DNA synthesis which requires DNA gyrase and which may explain the exquisite sensitivity of the germinating seeds to Peptides 1 and 2.
# Solubility = conditions: water
# [4] = tested on: Arabidopsis thaliana ecotype Columbia plants; experiment: Effects on A. thaliana seedlings and plants; type: in vivo
# Experimental: as §1
# (§2) The leaf tissue initially turned yellow, followed by rapid necrosis of the tissue (see FIG. 32). […] The high hydrophility of Peptide 1 may preferentially allow the compound to readily diffuse through the leaf cuticle and epidermis to the mesophyll and phloem below.
# (§3) The heterocyclic compounds were also spotted onto the leaves of 4 week old, tissue culture grown Arabidopsis thaliana ecotype Columbia plants (see FIG. 34, panels A-1). […] The browning and necrosis diffused through the full thickness of the leaf over the next 60 minutes (see FIG. 34, panel F) and spread towards the meristem (see FIG. 34, panels E, F, H). Complete necrosis of the meristem and newly emerged leaves, where organellar replication takes place, was complete within 24 hours (see FIG. 34, panel F).
# DNA gyrase A2B2 = DNA gyrase A2B2 (Escherichia coli, UniProt P0AES4+P0AES6); experiment: biochemical; type: biochemical, E. coli
# Experimental: Relaxation assays were performed in a manner analogous to that described by Pierrat et al., 2005. Briefly, relaxation assays were performed as for the supercoiling assay but with some modifications: ATP and spermidine were omitted. Gyr A and Gyr B were added to a solutions containing 35 mM of Tris.HCl (pH=7.5), 24 mM of KCl, 4 mM of MgCl2, 1.8 mg/mL of spermidine, 6.5% of glycerol, 0.36 mg/mL of BSA, 9 μg/mL of tRNA, 5 mM of DTT, 2 mM of ATP and 24 nM of relaxed pBR322 DNA. […] The amount of DMSO was kept constant at 3.33%. The reactions were incubated at 25° C., and at each time point 30 μL aliquots were quenched with the addition of an equal volume of chloroform/isoamyl alcohol (24:1) and a half volume of loading buffer STEB (40% sucrose/100 mM Tris HCl, pH 7.5/100 mM EDTA/2 mg/mL bromophenol blue). The mixtures then were vortexed and centrifuged for 1 minute at 13,000 rpm. The aqueous phase was loaded onto 1% agarose, TAE (40 mM Tris-acetate, 1 mM EDTA) gels and were run at either 30 V overnight in TAE (in the cold room) or 70 V for 2.5 hours in TAE. The gels were stained for about 20 minutes in TAE containing 1 μg/mL ethidium bromide followed by destaining in multiple washes of TAE. The data were analysed using Syngel software.
# [5] = tested on: Arabidopsis thaliana ecotype Columbia plants; experiment: Effects on whole plants/seedlings, Arabidopsis thaliana; type: in vivo
# Source text: as §2, §3
# [6] = tested on: A. thaliana ecotype Columbia seeds; experiment: Seed germination of A. thaliana; type: in vivo, Arabidopsis thaliana
# [7] = target: DNA gyrase (MG 1655 A2B2) (Escherichia coli, UniProt P0AES4+P0AES6); experiment: biochemical; parameters: species or system E. coli
# Experimental: GyrA and GyrB were added to a solution containing 35 mM Tris.HCl (pH, 7.5), 24 mM KCl, 4 mM MgCl2, 1.8 mM spermidine, 6.5% glycerol, 0.36 mg/mL BSA, 9 μg/mL tRNA, 5 mM DTT, 2 mM ATP and 24 nM relaxed pBR322 DNA. […] The reactions were incubated at 25° C., and at each time point 30-μl aliquots were quenched with 1 μL of 10% SDS. An equal volume of chloroform/isoamyl alcohol (24:1) and a half volume of loading buffer STEB (40% sucrose/100 mM Tris.HCl, pH 7.5/100 mM EDTA/2 mg/ml bromophenol blue) were added, and the mixtures then were vortexed and centrifuged for 1 min at 13,000 rpm. The aqueous phase was loaded onto 1% agarose, TAE (40 mM Tris-acetate, 1 mM EDTA) gels and were run at either 30 V overnight in TAE (in the cold room) or 70 V for 2.5 hours. The gels were stained for about 20 min in TAE containing 1 μg/ml ethidium bromide followed by destaining in multiple washes of TAE.
# E. coli MG1655 = experiment: Halo assay, wild-type E. coli MG1655; type: cell-based
# Experimental: Lawns of cells were prepared by spreading, on top of a LB+Agar plate, 3 ml of melted LSS medium (half-agar strength: 0.3 g Agar/50 ml LB) inoculated with 100 μl of a 10 ml LB overnight culture of E. coli cells grown at 37° C. […] The plates were incubated at 37° C. overnight and growth inhibition was qualitatively analysed by measuring the diameter of each halo.
# DNA gyrase = DNA gyrase (Escherichia coli, UniProt P0AES4+P0AES6); type: biochemical, E. coli
# Experimental: GyrA and GyrB were added to solutions containing 35 mM Tris.HCl (pH, 7.5), 24 mM KCl, 4 mM MgCl2, 1.8 mM spermidine, 6.5% glycerol, 0.36 mg/mL BSA, 9 μg/mL tRNA, 5 mM DTT, 2 mM ATP and 10 nM relaxed pBR322 DNA. […] The reactions were incubated at 25° C., and at each time point 30-μl aliquots were quenched with 1 μL of 10% SDS and 2 μL of 2 mg/ml proteinase K. Quenched aliquots were kept on ice until the experiment was completed, at which time they were incubated at 37° C. for half an hour. An equal volume of chloroform/isoamyl alcohol (24:1) and a half volume of loading buffer STEB (40% sucrose/100 mM Tris HCl, pH 7.5/1 mM EDTA/2 mg/ml bromophenol blue) were added, and the mixtures then were vortexed and centrifuged for 1 min at 13,000 rpm. The aqueous phase was loaded onto 1% agarose, TAE (40 mM Tris-acetate, 1 mM EDTA) gels that contained 1 μg/ml ethidium bromide and were run at either 30 V overnight in TAE containing 1 μg/ml ethidium bromide (in the cold room) or 70 V for 2.5 hours in TAE containing 1 μg/ml ethidium bromide.
# HT-29 cells = experiment: MTT cell viability assay, HT-29; type: cell-based, human; conditions: Homo sapiens, HT-29; 24 hours, MTT; read-out: In vivo HT29 Cells, approximate IC50
# Experimental: (§4) Human cell cultures were initiated from frozen cell stocks (the gift of Dr J. Gavrilovic, UEA). […] Both human cell lines form adherent cultures and were maintained at 37° C. in T25 culture vessels as 10 mL cultures in CO2 Independent Media containing 10% foetal bovine serum (EU approved), 4 mM L-glutamine, penicillin/streptomycin (Invitrogen). […] Media was renewed every three days.
# (§5) After incubation with MTT and solubilization, the resulting coloured solution is quantified using a scanning spectrophotometer. […] Cell viability was then determined by addition of MTT reagent (20 μL) in each well, as per manufacturer's instructions and incubated for a further 4 hours. Solubilization solution (100 μL) was added per well and the plates incubated overnight at 37° C. The plates were read in a spectrophotometer (scanning from 500-650 nm, signal peak at 570 nm).
# Human topoisomerase IIα = Human topoisomerase IIα (Homo sapiens, UniProt P11388); experiment: Human topoisomerase IIα-mediated relaxation assay; type: biochemical; parameters: purchased TopoGEN Inc; conditions: topoisomerase assays (FIG. 27)
# Sequence of Human topoisomerase IIα (P11388 whole entry): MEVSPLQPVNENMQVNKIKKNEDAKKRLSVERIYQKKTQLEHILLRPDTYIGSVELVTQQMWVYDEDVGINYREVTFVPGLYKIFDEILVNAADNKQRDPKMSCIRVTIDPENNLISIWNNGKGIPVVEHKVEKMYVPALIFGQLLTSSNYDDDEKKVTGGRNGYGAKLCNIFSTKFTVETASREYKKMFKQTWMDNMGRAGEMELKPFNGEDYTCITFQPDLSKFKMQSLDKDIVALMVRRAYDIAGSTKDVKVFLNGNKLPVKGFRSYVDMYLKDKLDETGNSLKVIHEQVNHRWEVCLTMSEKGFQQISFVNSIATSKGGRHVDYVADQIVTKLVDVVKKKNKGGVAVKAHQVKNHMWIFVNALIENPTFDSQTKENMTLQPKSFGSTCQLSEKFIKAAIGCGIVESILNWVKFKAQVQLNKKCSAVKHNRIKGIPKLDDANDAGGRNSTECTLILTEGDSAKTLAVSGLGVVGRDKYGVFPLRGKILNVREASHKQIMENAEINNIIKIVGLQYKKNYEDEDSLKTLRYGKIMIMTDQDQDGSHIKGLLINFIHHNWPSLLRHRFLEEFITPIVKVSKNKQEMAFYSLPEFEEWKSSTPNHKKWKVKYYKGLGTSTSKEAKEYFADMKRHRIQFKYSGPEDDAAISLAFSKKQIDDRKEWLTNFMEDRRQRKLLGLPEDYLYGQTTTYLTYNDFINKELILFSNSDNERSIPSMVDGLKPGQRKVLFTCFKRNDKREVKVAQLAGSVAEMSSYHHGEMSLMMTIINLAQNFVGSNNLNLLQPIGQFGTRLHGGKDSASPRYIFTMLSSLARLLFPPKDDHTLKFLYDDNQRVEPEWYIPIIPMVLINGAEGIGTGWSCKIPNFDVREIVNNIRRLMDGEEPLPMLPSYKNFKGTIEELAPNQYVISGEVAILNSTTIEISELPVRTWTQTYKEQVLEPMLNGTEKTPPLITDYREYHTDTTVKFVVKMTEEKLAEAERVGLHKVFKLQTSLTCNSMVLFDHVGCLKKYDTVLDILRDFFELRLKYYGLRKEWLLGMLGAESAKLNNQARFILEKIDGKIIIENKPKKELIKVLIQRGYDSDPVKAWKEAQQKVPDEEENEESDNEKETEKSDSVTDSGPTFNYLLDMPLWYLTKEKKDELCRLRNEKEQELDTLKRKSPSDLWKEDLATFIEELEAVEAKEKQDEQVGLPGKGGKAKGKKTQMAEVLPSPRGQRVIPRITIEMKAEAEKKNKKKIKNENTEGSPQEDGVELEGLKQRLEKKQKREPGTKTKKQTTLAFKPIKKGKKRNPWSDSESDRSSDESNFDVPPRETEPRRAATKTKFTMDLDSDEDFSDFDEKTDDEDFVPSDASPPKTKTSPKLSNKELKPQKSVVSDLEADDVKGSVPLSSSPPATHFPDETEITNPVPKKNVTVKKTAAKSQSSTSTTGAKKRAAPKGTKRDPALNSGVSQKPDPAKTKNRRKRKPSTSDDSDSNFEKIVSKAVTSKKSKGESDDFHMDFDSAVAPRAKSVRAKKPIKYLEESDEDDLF
# Experimental: Human Topoisomerase IIα-mediated relaxation assays and decatenation assays were performed as per the manufacturer's instructions in a total of 20 μL. Relaxation assays contained Topoisomerase IIα (4.3 nM), 50 mM Tris.HCl pH 8,120 mM KCl, 10 mM MgCl2, 0.5 mM DTT, 0.5 mM ATP, 4.6 nM of supercoiled pBR322 DNA, and inhibitor where appropriate. Decatenation assays substituted the supercoiled DNA with 200 ng catenated kinetoplast DNA.
# All in vitro reactions were incubated at 37° C. for 30 minutes. The DMSO concentration in each reaction was kept constant at 3.33%. Reactions were quenched with the addition of an equal volume of phenol/chloroform/isoamyl alcohol (25:24:1) and one tenth volume of loading buffer containing 40% sucrose, 100 mM Tris.HCl pH 7.5, 100 mM EDTA, 2 mg/mL bromophenol blue. The proteins were precipitated by vortexing, followed by centrifugation for 5 minutes at 16 000 g. The aqueous phase was loaded onto 1% agarose gels in Tris-acetate and were electrophoresed at 60 V for three hours in Tris-acetate buffer. The gels were stained in 1 μg/mL ethidium bromide. The gels were visualised using UV light and were documented and analysed using Syngene software.
# HeLa cells = experiment: MTT cell viability assay, HeLa; type: cell-based, human; conditions: Homo sapiens, HeLa; 24 hours, MTT; read-out: In vivo HeLa Cells, approximate IC50
# Experimental: as §4, §5
# [8] = target: T1, E. coli DNA gyrase A2B2, MG1655 wild type; conditions: Flatman et al., 2004; cited from earlier work
# [9] = target: T1, E. coli DNA gyrase A2B2, MG1655 wild type; conditions: Flatman et al., 2004; cited from earlier work; remark: listed apart in the source
# [10] = target: T2, E. coli DNA gyrase A2B2, wild type (Escherichia coli, UniProt P0AES4+P0AES6); conditions: Flatman et al., 2004; cited from earlier work
# [11] = target: T2, E. coli DNA gyrase A2B2, wild type; conditions: Flatman et al., 2004; cited from earlier work; remark: listed apart in the source
smiles,measurement,setting,value
O=C(O)c1cn(C2CC2)c2cc(N3CCNCC3)c(F)cc2c1=O [Ciprofloxacin],Inhibition of DNA-dependent ATPase,[1],slow down this ATPase hydrolysis rate of both wild type and mutant enzyme
same,"DNA-dependent ATPase, W751R mutant (novobiocin, ciprofloxacin)",[2],slow down this ATPase hydrolysis rate of both wild type and mutant enzyme
C[C@H](NC(=O)CNC(=O)CNC(=O)c1c[nH]c(CNC(=O)[C@H](C)NC(=O)CNC(=O)[C@@H](N)CCC(N)=O)c1)C(=O)O [Peptide 2] (H-QGA[X2]GGA-OH),Inhibition of seed germination,[3],able to inhibit germination of the seeds
same,solubility,Solubility,1000 µM
same,effect on 4-week old plants transferred to media containing the compound,"[4]; 100 μM Peptide 1, 200 μM Peptide 2","induced tumourous, undifferentiated cell growth"
same,effect on 6-week old seedlings,[4]; in vivo,induces tumour-like growth
same,IC50,DNA gyrase A2B2,> 100 µM
same,concentration at which the relaxation reaction is inhibited,"DNA gyrase A2B2; A2B2 70 nM, MccB17 tested at 25 μM",200 µM
same,Effect on 4-week old plants,[5]; 200 μM,"induced tumourous, undifferentiated cell growth in the meristematic region and petioles"
same,effect on 6-week old seedlings,[5]; observed at 150 μM (FIG. 26),induces tumour-like growth near the apical meristem zone
same,effect on seed germination,[6]; 100 μM,only a bleaching effect
same,effect on seed germination,[6]; 150 μM,seed germination occurred but the growth is slower compared with the untreated seeds
same,effects on 6-week old seedlings and germinating seeds,[6]; 200 μM,the same as the effects observed for 100 μM Peptide 1
same,activity against seed germination,[6]; concentrations tested,able to inhibit germination
same,potency relative to Peptide 1 in plant assays,[6]; in vivo,half the potency of Peptide 1
same,supercoiling activity relative to Peptide 1,[7]; FIG. 13,about half as active as Peptide 1
same,IC50,"[7]; Supercoiling (IC50 μM) MG 1655 A2B2, Table 4",> 100 µM
same,haloassay activity relative to Peptide 1,E. coli MG1655,twice less active than Peptide 1
same,stabilisation of the cleaved DNA-enzyme (cleavage) complex,"DNA gyrase; Peptide 1 at 100 μM, [A2B2]=30 nM, up to 1 h",Neither Peptide 1 nor Peptide 2 stabilise
same,Cleavage (IC50 μM),DNA gyrase; Table 4,inactive
NCc1nc(C(=O)O)cs1 [deBoc-thiazole],IC50,HT-29 cells,~15 µM
same,IC50 of deBoc-thiazole compared with thiazole compound,Human topoisomerase IIα,no difference to the calculated IC50 values
same,IC50,HeLa cells,~75 µM
CC(=O)O[C@@H]1[C@@H](C)O[C@@H](c2ccc3c(c2O)[C@@H](O)[C@]24O[C@@]2(C3=O)[C@@]2(O)C(=O)C=C(C)C[C@@]2(O)C[C@@H]4O)C[C@H]1OC(=O)/C=C/C=C/C=C/C=C/C(=O)Nc1c(O)c2ccc(O)c(Cl)c2oc1=O [simocyclinone D8],Inhibition of ATPase reaction,[8],not the ATPase reaction
same,Inhibition of supercoiling reaction,[9],inhibits the supercoiling and relaxation reactions
same,Inhibition of relaxation reaction,[10],inhibits the supercoiling and relaxation reactions
same,Cleavage complex formation / quinolone cleavage,[11],does not stimulate the gyrase-dependent cleavage complex formation but antagonizes quinolone cleavage
